Laboratory results from ChEMBL document CHEMBL1157039, “Synthesis and characterization of novel fatty acid analogs of cholesterol: in vitro antimicrobial activity” (2010).
Converted amounts (≈) assume the structure as drawn.

What was measured:
[1] = system: Candida parapsilosis; experiment: Antifungal activity against Candida parapsilosis ATCC 22019 after 48 to 72 hrs by microdilution method; type: functional; conditions: Lodderomyces parapsilosis
[2] = system: Escherichia coli; experiment: Antibacterial activity against Escherichia coli ATCC 25922 after 24 hrs by disk diffusion method; type: functional
[3] = system: Streptococcus mutans; experiment: Antibacterial activity against Streptococcus mutans UA159 MTCC 497 after 24 hrs by disk diffusion method; type: functional
[4] = system: Pseudomonas aeruginosa; experiment: Antibacterial activity against Pseudomonas aeruginosa ATCC 27853 after 24 hrs by disk diffusion method; type: functional
[5] = system: Streptococcus pyogenes; experiment: Antibacterial activity against recultured Streptococcus pyogenes after 24 hrs by disk diffusion method; type: functional
[6] = system: Pichia kudriavzevii; experiment: Antifungal activity against Candida krusei ATCC 6528 after 48 to 72 hrs by disk diffusion method; type: functional
[7] = system: Cryptococcus neoformans; experiment: Antifungal activity Cryptococcus neoformans after 48 to 72 hrs by disk diffusion method; type: functional
[8] = system: Cryptococcus neoformans; experiment: Antifungal activity Cryptococcus neoformans after 48 to 72 hrs by microdilution method; type: functional
[9] = system: Candida parapsilosis; experiment: Antifungal activity against Candida parapsilosis ATCC 22019 after 48 to 72 hrs by disk diffusion method; type: functional
[10] = system: Pseudomonas aeruginosa; experiment: Antibacterial activity against Pseudomonas aeruginosa ATCC 27853 after 24 hrs by microdilution method; type: functional; conditions: ATCC 27853, 24 h
[11] = system: Candida albicans; experiment: Antifungal activity against Candida albicans ATCC 24433 after 48 to 72 hrs by disk diffusion method; type: functional
[12] = system: Streptococcus mutans; experiment: Antibacterial activity against Streptococcus mutans UA159 MTCC 497 after 24 hrs by microdilution method; type: functional; conditions: UA159 MTCC 497, 24 h
[13] = system: Streptococcus pyogenes; experiment: Antibacterial activity against recultured Streptococcus pyogenes after 24 hrs by microdilution method; type: functional
[14] = system: Staphylococcus aureus; experiment: Antibacterial activity against Staphylococcus aureus ATCC 25923 after 24 hrs by microdilution method; type: functional; conditions: ATCC 25923, 24 h
[15] = system: Pichia kudriavzevii; experiment: Antifungal activity against Candida krusei ATCC 6528 after 48 to 72 hrs by microdilution method; type: functional
[16] = system: Candida albicans; experiment: Antifungal activity against Candida albicans ATCC 24433 after 48 to 72 hrs by microdilution method; type: functional
[17] = system: Escherichia coli; experiment: Antibacterial activity against Escherichia coli ATCC 25922 after 24 hrs by microdilution method; type: functional; conditions: ATCC 25922, 24 h
[18] = system: Staphylococcus aureus; experiment: Antibacterial activity against Staphylococcus aureus ATCC 25923 after 24 hrs by disk diffusion method; type: functional
[19] = system: Salmonella enterica; experiment: Antibacterial activity against recultured Salmonella Typhimurium after 24 hrs by disk diffusion method; type: functional, Salmonella enterica subsp. enterica serovar Typhimurium
[20] = system: Salmonella enterica; experiment: Antibacterial activity against recultured Salmonella Typhimurium after 24 hrs by microdilution method; type: functional, Salmonella enterica subsp. enterica serovar Typhimurium
[21] = system: Pseudomonas aeruginosa; experiment: Antibacterial activity against Pseudomonas aeruginosa ATCC 27853 at 30 ug/mL after 24 hrs by disk diffusion method; type: functional; conditions: ATCC 27853, 24 h, read-out: DIZ
[22] = system: Staphylococcus aureus; experiment: Antibacterial activity against Staphylococcus aureus ATCC 25923 at 30 ug/mL after 24 hrs by disk diffusion method; type: functional; conditions: ATCC 25923, 24 h, read-out: DIZ
[23] = system: Streptococcus mutans; experiment: Antibacterial activity against Streptococcus mutans UA159 MTCC 497 at 30 ug/mL after 24 hrs by disk diffusion method; type: functional; conditions: UA159 MTCC 497, 24 h, read-out: DIZ
[24] = system: Streptococcus pyogenes; experiment: Antibacterial activity against recultured Streptococcus pyogenes at 30 ug/mL after 24 hrs by disk diffusion method; type: functional; conditions: read-out: DIZ
[25] = system: Escherichia coli; experiment: Antibacterial activity against Escherichia coli ATCC 25922 at 30 ug/mL after 24 hrs by disk diffusion method; type: functional; conditions: ATCC 25922, 24 h, read-out: DIZ
[26] = system: Salmonella enterica; experiment: Antibacterial activity against recultured Salmonella Typhimurium at 30 ug/mL after 24 hrs by disk diffusion method; type: functional, Salmonella enterica subsp. enterica serovar Typhimurium; conditions: read-out: DIZ
[27] = system: Cryptococcus neoformans; experiment: Antifungal activity Cryptococcus neoformans at 30 ug/mL after 48 to 72 hrs by disk diffusion method; type: functional; conditions: read-out: DIZ
[28] = system: Pichia kudriavzevii; experiment: Antifungal activity against Candida krusei ATCC 6528 at 30 ug/mL after 48 to 72 hrs by disk diffusion method; type: functional; conditions: read-out: DIZ
[29] = system: Candida parapsilosis; experiment: Antifungal activity against Candida parapsilosis ATCC 22019 at 30 ug/mL after 48 to 72 hrs by disk diffusion method; type: functional; conditions: Lodderomyces parapsilosis, read-out: DIZ
[30] = system: Candida albicans; experiment: Antifungal activity against Candida albicans ATCC 24433 at 30 ug/mL after 48 to 72 hrs by disk diffusion method; type: functional; conditions: read-out: DIZ

Compound	MIC [1]	diameter of the inhibition zone (DIZ) [2]	diameter of the inhibition zone (DIZ) [3]	diameter of the inhibition zone (DIZ) [4]	diameter of the inhibition zone (DIZ) [5]	diameter of the inhibition zone (DIZ) [6]	diameter of the inhibition zone (DIZ) [7]	MIC [8]	diameter of the inhibition zone (DIZ) [9]	MIC [10]	diameter of the inhibition zone (DIZ) [11]	MIC [12]	MIC [13]	MIC [14]	MIC [15]	MIC [16]	MIC [17]	diameter of the inhibition zone (DIZ) [18]	diameter of the inhibition zone (DIZ) [19]	MIC [20]	also measured
CCCCCCCC/C=C\CCCCCCCC(=O)O[C@H]1CC[C@@]2(C)C(=CC[C@H]3[C@@H]4CC[C@H]([C@H](C)CCCC(C)C)[C@@]4(C)CC[C@@H]32)C1 [CHOLESTERYL OLEATE]	16 µg/mL (≈ 24.6 µM)	16.1 mm	18.9 mm	14.3 mm	17.2 mm	16.8 mm	15.1 mm	32 µg/mL (≈ 49.1 µM)	15.7 mm	128 µg/mL (≈ 197 µM)	18.7 mm	64 µg/mL (≈ 98.3 µM)	64 µg/mL (≈ 98.3 µM)	64 µg/mL (≈ 98.3 µM)	256 µg/mL (≈ 393 µM)	2 µg/mL (≈ 3.07 µM)	128 µg/mL (≈ 197 µM)	17.8 mm	15.1 mm	128 µg/mL (≈ 197 µM)	–
C=CCCCCCCCCC(=O)O[C@H]1CC[C@@]2(C)C(=CC[C@H]3[C@@H]4CC[C@H]([C@H](C)CCCC(C)C)[C@@]4(C)CC[C@@H]32)C1	32 µg/mL (≈ 57.9 µM)	16.5 mm	20.5 mm	16.2 mm	19.2 mm	16.1 mm	12.1 mm	128 µg/mL (≈ 231 µM)	15.1 mm	32 µg/mL (≈ 57.9 µM)	18.3 mm	32 µg/mL (≈ 57.9 µM)	32 µg/mL (≈ 57.9 µM)	64 µg/mL (≈ 116 µM)	256 µg/mL (≈ 463 µM)	2 µg/mL (≈ 3.62 µM)	128 µg/mL (≈ 231 µM)	19.8 mm	16.4 mm	128 µg/mL (≈ 231 µM)	–
CCCCC/C=C\CCC(O)CCCCCCCC(=O)O[C@H]1CC[C@@]2(C)C(=CC[C@H]3[C@@H]4CC[C@H]([C@H](C)CCCC(C)C)[C@@]4(C)CC[C@@H]32)C1 (stereo not given in full)	8 µg/mL (≈ 12 µM)	9.6 mm	17.3 mm	8.8 mm	16.8 mm	20.7 mm	19.1 mm	8 µg/mL (≈ 12 µM)	19.8 mm	128 µg/mL (≈ 192 µM)	22.5 mm	64 µg/mL (≈ 95.9 µM)	128 µg/mL (≈ 192 µM)	64 µg/mL (≈ 95.9 µM)	64 µg/mL (≈ 95.9 µM)	1 µg/mL (≈ 1.5 µM)	512 µg/mL (≈ 767 µM)	17.1 mm	14.8 mm	128 µg/mL (≈ 192 µM)	–
CC(C)CCC[C@@H](C)[C@H]1CC[C@H]2[C@@H]3CC=C4C[C@@H](OC(=O)CCCCCCCCC(Br)CBr)CC[C@]4(C)[C@H]3CC[C@]12C (stereo not given in full)	8 µg/mL (≈ 11.2 µM)	16.4 mm	20.3 mm	15.1 mm	18.8 mm	17.5 mm	15.9 mm	32 µg/mL (≈ 44.9 µM)	16.8 mm	128 µg/mL (≈ 180 µM)	19.5 mm	32 µg/mL (≈ 44.9 µM)	32 µg/mL (≈ 44.9 µM)	64 µg/mL (≈ 89.8 µM)	128 µg/mL (≈ 180 µM)	1 µg/mL (≈ 1.4 µM)	128 µg/mL (≈ 180 µM)	19.5 mm	16.1 mm	128 µg/mL (≈ 180 µM)	–
C=CCCCCCCCCC(=O)O[C@H]1CC[C@]2(C)[C@H]3CC[C@]4(C)[C@@H]([C@H](C)CCCC(C)C)CC[C@H]4[C@@H]3C[C@@H](Br)[C@@]2(Br)C1	256 µg/mL (≈ 359 µM)	19.8 mm	21.5 mm	17.1 mm	20.2 mm	13.4 mm	12.7 mm	128 µg/mL (≈ 180 µM)	12.8 mm	512 µg/mL (≈ 718 µM)	15.5 mm	32 µg/mL (≈ 44.9 µM)	64 µg/mL (≈ 89.8 µM)	64 µg/mL (≈ 89.8 µM)	256 µg/mL (≈ 359 µM)	16 µg/mL (≈ 22.4 µM)	128 µg/mL (≈ 180 µM)	20.1 mm	16.2 mm	128 µg/mL (≈ 180 µM)	–
CC(C)CCC[C@@H](C)[C@H]1CC[C@H]2[C@@H]3CC=C4C[C@@H](OC(=O)CCCCCCCCC5CO5)CC[C@]4(C)[C@H]3CC[C@]12C (stereo not given in full)	8 µg/mL (≈ 14.1 µM)	19.9 mm	21.9 mm	18.5 mm	20.5 mm	17.8 mm	15.8 mm	32 µg/mL (≈ 56.2 µM)	16.9 mm	64 µg/mL (≈ 112 µM)	19.6 mm	32 µg/mL (≈ 56.2 µM)	32 µg/mL (≈ 56.2 µM)	32 µg/mL (≈ 56.2 µM)	128 µg/mL (≈ 225 µM)	1 µg/mL (≈ 1.76 µM)	32 µg/mL (≈ 56.2 µM)	21.9 mm	17.2 mm	64 µg/mL (≈ 112 µM)	–
CCCCCCC(O)C/C=C\CCCCCCCC(=O)O[C@H]1CC[C@@]2(C)C(=CC[C@H]3[C@@H]4CC[C@H]([C@H](C)CCCC(C)C)[C@@]4(C)CC[C@@H]32)C1 (stereo not given in full)	8 µg/mL (≈ 12 µM)	20.4 mm	22.8 mm	16.5 mm	22.6 mm	18.7 mm	16.9 mm	8 µg/mL (≈ 12 µM)	17.8 mm	128 µg/mL (≈ 192 µM)	20.3 mm	32 µg/mL (≈ 48 µM)	32 µg/mL (≈ 48 µM)	32 µg/mL (≈ 48 µM)	64 µg/mL (≈ 95.9 µM)	1 µg/mL (≈ 1.5 µM)	32 µg/mL (≈ 48 µM)	22.1 mm	21.1 mm	32 µg/mL (≈ 48 µM)	–
O=C(N[C@H](CO)[C@H](O)c1ccc([N+](=O)[O-])cc1)C(Cl)Cl [CHLORAMPHENICOL]	–	–	–	–	–	–	–	–	–	32 µg/mL (≈ 99 µM)	–	32 µg/mL (≈ 99 µM)	32 µg/mL (≈ 99 µM)	32 µg/mL (≈ 99 µM)	–	–	32 µg/mL (≈ 99 µM)	–	–	32 µg/mL (≈ 99 µM)	zone of inhibition at 30 µg/mL [21]: 17.1 mm; zone of inhibition at 30 µg/mL [22]: 21 mm; zone of inhibition at 30 µg/mL [23]: 26.8 mm; zone of inhibition at 30 µg/mL [24]: 22.4 mm; zone of inhibition at 30 µg/mL [25]: 20 mm; zone of inhibition at 30 µg/mL [26]: 25.2 mm
OC(Cn1cncn1)(Cn1cncn1)c1ccc(F)cc1F [FLUCONAZOLE]	8 µg/mL (≈ 26.1 µM)	–	–	–	–	–	–	8 µg/mL (≈ 26.1 µM)	–	–	–	–	–	–	64 µg/mL (≈ 209 µM)	1 µg/mL (≈ 3.27 µM)	–	–	–	–	zone of inhibition at 30 µg/mL [27]: 19 mm; zone of inhibition at 30 µg/mL [28]: 20 mm; zone of inhibition at 30 µg/mL [29]: 18 mm; zone of inhibition at 30 µg/mL [30]: 20 mm
CC(C)CCC[C@@H](C)[C@H]1CC[C@H]2[C@@H]3C[C@@H](Br)[C@@]4(Br)C[C@@H](OC(=O)CCCCCCCCC(Br)CBr)CC[C@]4(C)[C@H]3CC[C@]12C (stereo not given in full)	64 µg/mL (≈ 73.3 µM)	20.5 mm	23.1 mm	17.1 mm	23.3 mm	15.5 mm	13.8 mm	64 µg/mL (≈ 73.3 µM)	14.4 mm	64 µg/mL (≈ 73.3 µM)	17.8 mm	32 µg/mL (≈ 36.7 µM)	32 µg/mL (≈ 36.7 µM)	32 µg/mL (≈ 36.7 µM)	512 µg/mL (≈ 587 µM)	4 µg/mL (≈ 4.58 µM)	32 µg/mL (≈ 36.7 µM)	22.5 mm	21.3 mm	64 µg/mL (≈ 73.3 µM)	–
